The results in this text go back to the Bradley open melting point set (2014).

“And” between values parts separate entries of the source, which are not always exact repeats. Equal entries are not always repeated.

In the case of `CC1CCC(C(C)C)C(O)C1` (stereo not drawn) [2-Isopropyl-5-methylcyclohexanol], the melting point (commonly the temperature, or range, at which the solid turns liquid) amounted to 34.5 °C.

Consider `O=C1CCOc2ccccc21` [4-chromanone], for which the melting point was 38 °C.

The molecule `CN(C)c1ccc(C2Nn3c(COc4ccccc4)nnc3S2)cc1` (stereo not drawn) yielded a melting point of 144 °C.

Consider `O=C1c2c(O)cccc2Cc2cccc(O)c21` [1,8-Dihydroxyanthracen-9(10H)-one], for which the melting point was 181 °C.

`Cc1ccc(S(=O)(=O)Cl)cc1[N+](=O)[O-]` [4-methyl-3-nitrobenzenesulfonyl chloride] came in with a melting point of 35 °C.

On to `Oc1ccc2c(c1)CCCC2` [5,6,7,8-tetrahydro-2-naphthol], for which the melting point came out at 62 °C.

`CCC/C=C/CCC` [trans-4-octene] gave a melting point of -94 °C.

`OB(O)c1ccc(Br)cc1F` [4-bromo-2-fluorobenzeneboronic acid] registered a melting point of 240 °C.

Turning to `CCOc1ccc(N)cc1` [p-ethoxyaniline], the melting point came out at 4 °C.

Regarding `Cc1cccc(C)n1` [2,6-Dimethylpyridine], the melting point was -6 °C.

For `FC(F)(F)c1cccc(Br)n1` [2-bromo-6-(trifluoromethyl)pyridine], the melting point came to 50 °C.

Regarding `NC(=O)Cc1ccc(O)cc1` [4-hydroxyphenylacetamide], the melting point turned out to be 174 °C.

`COc1ccc(C=C2C3=C(CCCC3)OC3=C2CCCC3)cc1` showed a melting point of 124 °C.

Take `N#Cc1ccc2c(c1)OCO2` [Piperonylonitrile]: the melting point amounted to 94 °C.

On to `C=Cc1ccc(N)cc1` [p-vinylaniline], for which the melting point was found to be 26 °C.

`COc1ccc(NC(=O)N(C)C)cc1Cl` [metoxuron] showed a melting point of 127 °C.

`O=C1c2c(O)ccc([N+](=O)[O-])c2C(=O)c2c([N+](=O)[O-])ccc(O)c21` [1,8-Dihydroxy-4,5-dinitro-9,10-anthraquinone] displayed a melting point of 225 °C.

`O=CNc1ccccc1` [N-Phenylformamide] yielded a melting point of 47 °C.

The molecule `CC(=O)C(=Cc1ccc(-c2ccccc2[N+](=O)[O-])o1)C(C)=O` [3-{[5-(2-nitrophenyl)-2-furyl]methylene}pentane-2,4-dione] returned a melting point of 128 °C.

`Cc1ccc(C2(O)CCN(CCCC(=O)c3ccc(F)cc3)CC2)cc1` [moperone] came in with a melting point of 118 °C.

The molecule `CCCN(CCC)S(=O)(=O)c1ccc(C(=O)O)cc1` [probenecid] registered a melting point of 198 °C.

Turning to `NC(=O)C1=C(CCc2ccccc2)CCCC1` [2-(2-phenylethyl)cyclohex-1-ene-1-carboxamide], the melting point was found to be 113 °C.

`O=C(/C=C/c1ccccc1)c1ccccc1O` [2'-hydroxychalcone]: the melting point was 90 °C.

Molecule `O=C(O)C1CCCCC1` [cyclohexanecarboxylic acid] came in with a melting point of 30 °C.

The molecule `COc1ccc(S(=O)(=O)Cl)cc1` [4-methoxybenzenesulfonyl chloride] registered a melting point of 40 °C.

`NC1=NCCS1` [2-amino-2-thiazoline]: the melting point came out at 80 °C.

`C#CCCCCCCCCCCCCCCCC` [1-octadecyne] displayed a melting point of 27 °C.

For the molecule `C1CCOCC1` [Tetrahydropyran], the melting point was -45 °C.

As for `c1ccc2cc3cc4ccccc4cc3cc2c1` [naphthacene], the melting point came to 357 °C.

As to `Cc1ccccc1/C=C(\C#N)c1nc2ccccc2s1` [(E)-2-Benzothiazol-2-yl-3-o-tolyl-acrylonitrile], the melting point was found to be 149 °C.

`OCc1ccncc1` [4-pyridinemethanol]: the melting point is 54 °C.

As for `COc1ccc(OCC(=O)O)cc1` [4-methoxyphenoxyacetic acid], the melting point turned out to be 111 °C.

For the molecule `CCOC(=O)N1C(=O)c2ccccc2C1=O` [N-(ethoxycarbonyl)phthalimide], the melting point came out at 81 °C.

The molecule `OCc1ccnc(Cl)c1` [2-chloropyridine-4-methanol] had a melting point of 65 °C.

For `COc1cc(/C=C/C(=O)NCCc2ccc(OCc3ccccc3)c(OC)c2)ccc1OCc1ccccc1`, the melting point was 164 °C.

In turn, `CCOC(=O)CCC(C)C1CCC2C3C=CC4CC(OC(C)=O)CCC4(C)C3CC(OC(C)=O)C12C` (stereo not drawn) [ethyl 3,12-bis(acetyloxy)chol-6-en-24-oate] showed a melting point of 84 °C.

`COC(=O)CCC(C)C1CCC2C3C(O)C(O)C4CCCCC4(C)C3CCC12C` (stereo not drawn) [methyl 6,7-dihydroxycholan-24-oate]: the melting point was determined as 105 °C.

Take `c1ccc2c(c1)Nc1ccccc1S2` [phenothiazine]: the melting point is 184 °C (3×) and 188 °C and 185 °C (2×).

Regarding `C[C@]12CC[C@H]3[C@@H](CCC4=CC(=O)CC[C@@]43C)[C@@H]1CC[C@@H]2C(=O)CO` [Deoxycorticosterone], the melting point stood at 142 °C.

Regarding `c1ccc2c(c1)oc1ccccc12` [dibenzofuran], the melting point worked out at 81 °C.

In turn, `O=C(O)c1c(Cl)cccc1Cl` [2,6-Dichlorobenzoic acid] displayed a melting point of 144 °C.

`C/C(C)=C(/C)C` [2,3-dimethyl-2-butene] displayed a melting point of -74 °C.

`C[Si](C)(C)OB(O[Si](C)(C)C)O[Si](C)(C)C` [tris(trimethylsilyl) borate] yielded a melting point of -35 °C.

`NCCC(c1ccccc1)c1ccccc1` [3,3-diphenylpropylamine] showed a melting point of 27 °C.

Take `NNC(=O)CC(=O)NN` [malonic acid dihydrazide]: the melting point was determined as 154 °C.

For `CC(Cl)C(=O)O` (stereo not drawn) [2-Chloropropanoic acid], the melting point was -13 °C.

Turning to `Cc1cc(C)c(C)c(CCl)c1C` [2,3,5,6-tetramethylbenzyl chloride], the melting point came to 70 °C.

`CC(=O)Br` [acetyl bromide] gave a melting point of -96 °C.

On to `Cc1ccc(N)cc1` [p-toluidine], for which the melting point was found to be 44 °C.

Consider `COc1ccc2cc(C(C)CO)ccc2c1` (stereo not drawn) [Naproxol], for which the melting point turned out to be 87 °C.

As for `C[Si](C)(Cl)Cl` [dichlorodimethylsilane], the melting point was -76 °C.

The molecule `CC1(C(=O)O)CCCCC1` [1-Methylcyclohexanecarboxylic acid] came in with a melting point of 38 °C.

Take `N#Cc1ccccc1[N+](=O)[O-]` [o-nitrobenzonitrile]: the melting point amounted to 109 °C.

On to `O=Cc1ccc(N2CCCC2)cc1` [4-(1-pyrrolidinyl)benzaldehyde], for which the melting point is 84 °C.

`OC(c1ccccc1)c1ccccc1` [Diphenylmethanol]: the melting point was found to be 66 °C.

`C[C@@H](CO)NC(=O)OC(C)(C)C` [N-boc-L-alaninol] registered a melting point of 59 °C.

Molecule `CC(C)N` [isopropylamine] displayed a melting point of -101 °C.

Molecule `CCCCCCCCC(C)O` (stereo not drawn) [2-decanol] displayed a melting point of -2 °C.

On to `N#CCc1ccc(N)cc1` [4-aminophenylacetonitrile], for which the melting point was 44 °C.

As for `O=Cc1ccc(CO)cc1` [p-hydroxymethyl_benzaldehyde], the melting point stood at 47 °C.

As for `Nc1c(Cl)cccc1Cl` [2,6-dichloroaniline], the melting point came out at 39 °C.

Molecule `O=[N+]([O-])c1c(F)cc(F)cc1F` [1,3,5-trifluoro-2-nitrobenzene] displayed a melting point of 4 °C.

In the case of `Nc1ccc(Br)cc1` [4-bromoaniline], the melting point is 63 °C.

Molecule `CC[C@@]1(O)C(=O)OCc2c1cc1n(c2=O)Cc2cc3ccccc3nc2-1` [Camptothecin] yielded a melting point of 276 °C.

In turn, `CP(C)(C)=O` [trimethylphosphine oxide] came in with a melting point of 141 °C.

With `Cc1cc(C)c([N+](=O)[O-])c(C)c1Br` [2-bromo-4-nitro-1,3,5-trimethylbenzene], the melting point is 60 °C.

Consider `CC(O)C(=O)O` (stereo not drawn) [lactic acid], for which the melting point was 18 °C.

For `NC(=O)c1ccccc1` [benzamide], the melting point was 126 °C and 127 °C.

For the molecule `C(=C\c1cccc(/C=C/c2ccccc2)c1)/c1ccccc1` [1,3-bis[(E)-2-phenylethenyl]benzene], the melting point is 150 °C.

For `CC(C)CCC[C@@H](C)[C@H]1CC[C@H]2[C@@H]3CC=C4C[C@@H](O)CC[C@]4(C)[C@H]3CC[C@]12C` [cholesterol], the melting point is 148 °C (3×) and 149 °C.

For the molecule `CN1CCC2=C(C1)C(c1ccccc1)c1ccccc12` (stereo not drawn) [phenindamine], the melting point was 91 °C.

For `NC(=O)c1ccccc1O` [salicylamide], the melting point came to 140 °C.

The molecule `O=[N+]([O-])c1ccccc1B(O)O` [2-nitrobenzeneboronic acid] registered a melting point of 150 °C.

For the molecule `CS(=O)c1ccc(cc1)/C=C3c2ccc(F)cc2C(CC(=O)O)=C3C` (stereo not drawn) [Sulindac], the melting point stood at 183 °C.

Turning to `O=C1CCCC1` [cyclopentanone], the melting point was -51 °C.

Take `CC(C)CCCCC(C)C` [2,7-dimethyloctane]: the melting point is -54 °C.

`Brc1c(Br)c(Br)c(Br)c(Br)c1Br` [hexabromobenzene]: the melting point is 306 °C.

The molecule `O=C(O)c1ccccc1B(O)O` [2-carboxybenzeneboronic acid] registered a melting point of 220 °C.

As to `COC(=O)c1ccc(O)cc1` [methyl 4-hydroxybenzoate], the melting point is 131 °C and 127 °C.

Regarding `O=C(O)c1cccnc1` [nicotinic acid], the melting point is 237 °C (2×) and 238 °C.

The molecule `Cc1c(C)c(C)c(Br)c(C)c1C` [bromopentamethylbenzene] showed a melting point of 162 °C.

Molecule `Oc1c(Br)cc(Br)cc1Br` [2,4,6-tribromophenol] displayed a melting point of 89 °C.

The molecule `Brc1ccccc1Br` [o-dibromobenzene] yielded a melting point of 7 °C.

`O[C@@H]1CC[C@H](C[C@H]1OC)/C=C(C)[C@H]2OC(=O)[C@@H]4CCCCN4C(=O)C(=O)[C@]3(O)O[C@H]([C@H](C[C@@H](C)CC(C)=C[C@@H](CC=C)C(=O)C[C@H](O)[C@H]2C)OC)[C@H](C[C@H]3C)OC` [Tacrolimus] yielded a melting point of 126 °C.

`NC(=O)c1ccccc1N` [2-aminobenzamide] gave a melting point of 112 °C.

`COc1cc(OC)c2c(c1)C(O)OC2=O` (stereo not drawn) [3-hydroxy-5,7-dimethoxy-2-benzofuran-1(3H)-one]: the melting point was found to be 185 °C.

The molecule `Cc1cccs1` [2-methylthiophene] displayed a melting point of -63 °C.

With `COc1ccc(/C=C(\Oc2ccc(Cl)cc2)c2nc3ccccc3s2)cc1`, the melting point is 138 °C.
